The results in this text go back to ChEMBL document CHEMBL1136622, “Discovery of the first antibacterial small molecule inhibitors of MurB” (Bioorg Med Chem Lett, 2003).

Each structure is given as a SMILES string. ≈ marks a conversion by molar mass, not a printed value. Bounds are passed on as bounds.

A short description of assay [1]: In vitro inhibitory concentration required against Mur B enzyme was determined. The arrangement: species or system Staphylococcus aureus.
The subject of assay [2] is Staphylococcus aureus. The experiment in a line: Antibacterial activity against Staphylococcus aureus A9537. Format: functional.

As usually defined, the IC50 is the concentration needed to halve the response being measured. For the molecule `CCCC[C@@H](C(=O)O)n1c(-c2cccc(Oc3ccc(C(C)(C)C)cc3)c2)cnc1O`, in assay [1], the IC50 is > 118 µM.

In assay [1], `CCCC[C@@H](C(=O)O)N1C(=O)C(CC(=O)NCCc2ccccc2Cl)SC1c1cccc(Oc2ccc(C(C)(C)C)cc2)c1` (some centres not stated) showed an IC50 of 12 µM.

As a reminder, the MIC is the lowest concentration that inhibits growth of the organism. A low value points to a more susceptible organism. With `C=CCn1cc(-c2cccc(Oc3ccc(C(C)(C)C)cc3)c2)n([C@@H](CCCC)C(=O)O)c1=O`, the IC50 in assay [1] turned out to be 40 µM. This molecule came in with an MIC in assay [2] of 4 µg/mL (≈ 8.65 µM).

`CCCC[C@@H](C(=O)O)n1c(-c2cccc(Oc3ccc(C(C)(C)C)cc3)c2)cn(C)c1=O`: the IC50 in assay [1] is > 115 µM.

In the case of `CCCC[C@@H](C(=O)O)n1c(-c2cccc(Oc3ccc(C(C)(C)C)cc3)c2)cn(Cc2ccccc2)c1=O`, the IC50 in assay [1] came to 16 µM. For the same molecule, the MIC in assay [2] came out at 2 µg/mL (≈ 3.9 µM).

Consider `CCCC[C@@H](C(=O)OC)n1c(-c2cccc(Oc3ccc(C(C)(C)C)cc3)c2)cn(CC(=O)O)c1=O`, for which, in assay [1], the concentration for half-maximal inhibition (IC50) is > 101 µM.

As to `CCCC[C@@H](C(=O)O)n1c(-c2cccc(Oc3ccc(C(C)(C)C)cc3)c2)cn(CC(=O)NCCc2ccccc2Cl)c1=O`, the concentration for half-maximal inhibition (IC50) in assay [1] was 25 µM. This molecule came in with an MIC in assay [2] of 4 µg/mL (≈ 6.47 µM).

In assay [1], `CCCC[C@@H](C(=O)O)n1c(-c2cccc(Oc3ccc(C(C)(C)C)cc3)c2)cn(CC(=O)NCc2ccc(Cl)c(Cl)c2)c1=O` showed a 50% inhibitory concentration (IC50) of 15 µM. This molecule came in with a minimum inhibitory concentration (MIC) in assay [2] of 4 µg/mL (≈ 6.26 µM).
